Data published in US12150945B2, “Liver disease” (Lipocine Inc., priority 2018, dated 2024).

Tests used:
Type in all cases: in vivo, human
[1] = Serum testosterone pharmacokinetics (24-hour PK sampling, LC-MS/MS), phase 3 oral testosterone undecanoate trial of Example 1; conditions: for Average serum T levels: single blood draw 3 to 6 hours post morning dose
Experimental: (§1) Oral testosterone therapy was evaluated in a multicenter, phase 3, randomized, open-label, active controlled, parallel-group study that included a 13-week efficacy phase and a 52-week safety phase. An active arm in which subjects received T gel was included for safety evaluation only.
Males 18 through 80 years old with a documented diagnosis of primary hypogonadism (congenital or acquired) or hypogonadotropic hypogonadism (congenital or acquired) and with morning serum T<300 ng/dL based on 2 consecutive blood samples obtained between 0600 and 1000 on 2 separate days at approximately the same time were eligible to participate. Subjects were either naïve to T therapy or completed an adequate washout of T therapy (eg, 12 weeks after intramuscular androgen injections excluding TU injections which required a longer waiting period; 4 weeks after topical or buccal androgens; and 3 weeks after oral androgens). Exclusion criteria included abnormal prostate digital rectal examination with palpable nodule(s) or International Prostate Symptom Score (IPSS)>19 points; body mass index ≥38 kg/m^2, clinically significant laboratory values (baseline hemoglobin <11.5 or >16.5 g/dL, hematocrit <35% or >54%, serum transaminases >2.5 times upper limit of normal, serum bilirubin >2.0 mg/dL, creatinine >2.0 mg/dL, prostate specific antigen [PSA]>2 ng/mL, prolactin >17.7 ng/mL); history of seizures or convulsions; any surgical procedure that might interfere with gastrointestinal motility, pH, or absorption; stroke or myocardial infarction within 5 years; current or suspected prostate or breast cancer; severe, untreated, obstructive sleep apnea; long QT syndrome or unexplained sudden death in first-degree relative; concurrent medication use that could impact absorption, distribution, metabolism, or excretion of TU or place subject at risk for treatment with T; and dose changes of antihypertensive, lipid-lowering, or hypoglycemic agents within previous 3 months.
(§2) Subjects were randomized in a 2:1 ratio to oral testosterone undecanoate or T gel. oral testosterone undecanoate subjects started at a dose of 225 mg TU (“testosterone undecanoate”) taken twice daily (total daily dose: 450 mg TU) every 12 hours. For optimal lymphatic absorption oral testosterone undecanoate must be administered with a meal. Therefore, subjects were instructed to administer oral testosterone undecanoate after a standard meal (defined as a meal consisting of 800 to 1400 calories with approximately 20% to 35% fat content). The oral testosterone undecanoate dose was titrated at Weeks 4 and 8, if necessary, based on results of intensive 24-hour PK blood sampling obtained at Weeks 3 and 7, respectively. Oral testosterone undecanoate subjects stayed at the clinic overnight during each intensive PK blood sampling period. […] Oral testosterone undecanoate dose levels permitted during the study were 150 mg BID, 225 mg BID, and 300 mg BID. Data collected during an intensive 24-hour PK sampling overnight stay at Week 13 were used for efficacy analysis; dose was not adjusted at this visit. Additional outpatient visits were conducted at Weeks 26, 39, and 52 during which single blood draws were performed 3 to 6 hours post morning dose. Dose was not adjusted during these visits.
(§3) Serum levels of T, TU, dihydrotestosterone (DHT), dihydrotestosterone undecanoate (DHTU), and estradiol (E2) were evaluated in oral testosterone undecanoate treated subjects. […] Sex hormone binding globulin (SHBG) was evaluated in data from all subjects. Serum T concentrations at screening were measured using chemiluminescence immunoassay kits. Hormone assays for pharmacokinetic assessment were analyzed at PPD Bioanalytical Laboratory in Richmond, Virginia Serum samples were analyzed for T, DHT, TU, DHTU, and E2 using a validated liquid chromatography-tandem mass spectrometry (LC-MS/MS) assay.

SHBG = experiment: Sex hormone binding globulin (SHBG) levels, trial of Example 1
Experimental: as §1
Subjects were randomized in a 2:1 ratio to oral testosterone undecanoate or T gel. oral testosterone undecanoate subjects started at a dose of 225 mg TU (“testosterone undecanoate”) taken twice daily (total daily dose: 450 mg TU) every 12 hours. For optimal lymphatic absorption oral testosterone undecanoate must be administered with a meal. […]
as §3

[2] = test system: Lipoprotein-associated phospholipase A2; experiment: Lipoprotein-associated phospholipase A2, change from baseline to end of study, trial of Example 1
Experimental: as §1, §2
(§4) T gel (ANDROGEL®) (testosterone gel for topical use) 1.62%, AbbVie, Chicago, Illinois, US) was supplied in non-aerosol, metered dose pumps that deliver 20.25 mg T per complete pump actuation. T gel was dosed according to product labeling. Subjects receiving T gel completed outpatient visits at Weeks 2 and 4 with single blood draws to determine titration and at Weeks 3 and 5 for dose changes, if necessary. They also completed an outpatient visit at Week 7 for safety assessments and at Weeks 13, 26, 39 and 52 during which single blood samples were obtained 3 to 6 hours after the morning dose. Dose was not adjusted during these visits. Overnight clinic stays were not required for T gel subjects.
(§5) Safety endpoints included adverse events (AEs), physical examination findings, vital signs, electrocardiograms (ECGs), and clinical laboratory tests. AEs were classified using the Medical Dictionary for Regulatory Activities (Version 16.1). Safety endpoints were summarized using descriptive statistics. Lab parameters were evaluated using two sample t-tests comparing change from baseline to end of study (EOS) across oral testosterone undecanoate and T gel subjects with p-values <0.05 considered statistically significant.

lipids = experiment: Lipid parameters (HDL, LDL, total cholesterol, triglycerides, non-HDL cholesterol), change from baseline to end of study, trial of Example 1
Experimental: as §1, §2, §4, §5

C-Reactive Protein = experiment: C-Reactive Protein, change from baseline to end of study, trial of Example 1; conditions: Safety Set; subjects with CRP values > 95.23 excluded
[3] = 4th quartile patients based on lab parameter level, 1 Year Oral TU Study
[4] = Safety Set, baseline to end of study

SMILES: CCCCCCCCCCC(=O)O[C@H]1CC[C@H]2[C@@H]3CCC4=CC(=O)CC[C@]4(C)[C@H]3CC[C@]12C [oral testosterone undecanoate, testosterone undecanoate]
- serum T Cavg0-24 h ([1]; Week 13): 446 ng/dL
- serum T Cmax ([1]; Week 13): 1134 ng/dL
- subjects with serum T Cavg0-24 h between 300 and 1140 ng/dL ([1]; Week 13, 95% lower bound CI: 81.7%, met predefined efficacy criteria): 87.4%
- Average serum T levels ([1]; Week 26): 481 ± 371 ng/dL
- Average serum T levels ([1]; Week 39): 543 ± 438 ng/dL
- Average serum T levels ([1]; Week 52): 538 ± 545 ng/dL
- SHBG change from baseline (SHBG; Week 13 (largest decrease)): -11.75 nmol/L
- Mean SHBG levels (SHBG; each post-baseline visit): decreased
- Lp-PLA2, mean change from baseline [2, 3]: -47.8 ng/mL
- Lp-PLA2, mean change from baseline, % [2, 3]: −17.1%
- Lp-PLA2, mean (SD) change from baseline to end of study [2, 4]: −9.6 (42.07) ng/mL
- Lipoprotein-associated phospholipase A2, baseline to EOS ([2]; difference in change between groups not significant): decreased significantly
- LDL-C, mean change from baseline (lipids; [3]): -10.2 mg/dL
- LDL-C, mean change from baseline, % (lipids; [3]): −6.1%
- Non-HDL-C, mean change from baseline (lipids; [3]): -18.2 mg/dL
- Non-HDL-C, mean change from baseline, % (lipids; [3]): −8.7%
- Total Cholesterol, mean change from baseline (lipids; [3]): -20.2 mg/dL
- Total Cholesterol, mean change from baseline, % (lipids; [3]): −7.9%
- Triglycerides, mean change from baseline (lipids; [3]): -85.1 mg/dL
- Triglycerides, mean change from baseline, % (lipids; [3]): −19.0%
- Cholesterol, mean (SD) change from baseline to end of study (lipids; [4]): -0.24 (0.82) mmol/L
- HDL cholesterol, mean (SD) change from baseline to end of study (lipids; [4]): −0.14 (0.22) mmol/L
- LDL cholesterol, mean (SD) change from baseline to end of study (lipids; [4]): −0.05 (0.66) mmol/L
- Triglyceride, mean (SD) change from baseline to end of study (lipids; [4]): −0.18 (1.14) mmol/L
- Serum HDL cholesterol decrease at EOS (lipids; compared with T gel): significantly larger decrease
- HDL cholesterol: subjects with a shift from normal at baseline to low at EOS (lipids; in vivo): 19.0%
- other lipid parameters, difference between oral testosterone undecanoate and T gel (lipids; lipid parameters other than HDL cholesterol): No statistically significant differences
- C-Reactive Protein, mean (SD) change from baseline to end of study (C-Reactive Protein): −4.68 (30.94) nmol/L
